Entries after “also recorded” stand apart in the source; their conditions may differ.
Columns and labels:
RAW 264.7 cells = experiment: Cell viability of drug treated RAW 264.7 cells (CellTiter 96 AQueous One, MTS); conditions: for Viability, % Change versus Control (± s.e.m.): 10 uM; for Cell Viability % Δ: 1 μM, RAW 264.7 cells, percentage of vehicle control value, mean ± S.E.M., n = 3
Protocol: Assessments of drug anti-TNF-α and nitric oxide generation in RAW 264.7 cells: RAW 264.7 cells were purchased from ATCC Manassas, VA, USA). The cells were grown in DMEM media (Invitrogen, DMEM, high glucose, GlutaMAX Supplement, pyruvate, #10569-010) supplemented with 10% FBS (Invitrogen, Fetal Bovine Serum, qualified, heat inactivated, #16140-071) with penicillin and streptomycin (Invitrogen, Penicillin-Streptomycin (10,000 U/mL), #15140-122) and were maintained at 37 C and 5% CO2. The cells were grown to 75%-85% confluence on 10 cm plates (corning-Fal-con, #353003) following the protocol described by ATTC. to assess for drug effects on LPS-induced markers of inflammation, namely TNF-α protein and nitrite ion levels (NO2, a stable end-product of nitric oxide metabolism) cells were seeded into 24 well (VWR, #10062-896) at a density of 200×10^3 cells per well. On each plate there was one blank well where no cells were added yet culture media in the well was treated similarly to wells with cells (n=1). The blank well media was used for background subtraction for various downstream assays. twenty-four hours after seeding the plate the seeding media was replaced with fresh media. Two hours after this the cells were exposed to a range of concentrations of drug test-compound(s) dissolved in 100% tissue culture grade dimethyl sjloxide (DMSO, SIGMA #D2650). Drug stocks were prepared in a 200 times more concentrated stock in DMSO. The final concentration of DMSO added to the cells was 0.5%. The effects of each concentration of drug were assessed in 4 wells per concentration in the 24 well plate (n=3 #-4). On each plate one set of wells were assigned as drug-vehicle control (i.e. DMSO), one test compound was assessed on one 24 well plate. […] One hour after the drugs were added the cells were challenged with lipopolysaccharide (LPS, SIGMA, serotype 055:B5) at a final concentration of 60 ng/ml. Twenty to twenty-four hours after the cells were challenged with LPS the culture media was collected and utilized for the measurement of markers of inflammation.
Cellular viability assessment of drug treated RAW 264.7 cells: RAW 264.7 cell viability was determined by use of the CellTiter 96 AQueous One Solution Cell Proliferation Assay (Promega, Madison, WI). Changes in cellular health status were determined by use of indirect measures related to the formation of a colored tetrazolium dye product that can be measured spectrophotometrically at 490 nm. An increase in absorbance at 490 nm is indicative of an increase in numbers of healthy cells; similarly a reduction in absorbance is indicative of a reduction of healthy cells. After the culture media was harvested for use in TNF-α and NO2— ion assays, the media was replaced with 0.5 mL of fresh media plus 100 μL of the cell viability reaction mixture. After a 20-30 min incubation at 37° C. with 5% CO2 the absorbance at 490 nm was obtained using an infinite M200 PRO plate reader (TECAN, USA).
Statistical analyses for RAW-derived assays: Data are expressed as a percentage change from the DMSO-vehicle control measurements. Measurements are expressed as mean±standard errors, where the n number represents the number of wells in a 24 well plate. Due to the presence of one blank control well on each plate, for some drug concentrations the n number is 3 # and not 4. Statistical comparisons were undertaken by use of a One-Way ANOVA with appropriate Bonferroni corrections for multiple comparisons, as required (GraphPad InStat Version 3.05). P values of <0.05 are considered to be of statistical significance.
RAW 264.7 cell culture: RAW 264.7 mouse cells were purchased from ATCC (Manassas, VA, USA) and grown in DMEM media supplemented with 10% FCS, penicillin 100 U/ml and streptomycin 100 μg/ml (ThermoFisher Scientific, Asheville, NC, USA). The cells were maintained at 37° C. and 5% CO2.

[1] = test system: LPS-induced nitrite in RAW 264.7 cells; experiment: LPS-induced nitrite production in RAW 264.7 cells (Griess reagent / fluorometric kit); assay type: cell-based, mouse; conditions: for Nitrite, % Change versus Control (± s.e.m.): 10 uM; for nitrite level, % of vehicle control: percentage of vehicle control value (control = 100%), mean ± S.E.M., n = 3; for nitrite inhibitory activity (comparison in words): tetrafluoro vs corresponding difluoro or stereoisomer; for nitrite levels (in words): six-compound pomalidomide grouping, RAW cell assay, FIGS. 12-13
Protocol: Nitrite ion detection in drug treated […] cell culture media: To measure the levels of nitrite ion NO2—) the Griess Reagent System (Promega, Madison, WI, Cat #G2930) was utilized. The protocol followed was that recommended by the manufacturer. In brief a NO2— ion standard curve was prepared in culture media of the same composition to that used for the cell culture study. The concentration range of the standard curve was from 1.5 µM to 100 µM. Equal volumes (50 μL) of standards and unknown samples were added to clear 96 well plates in duplicate. Then 50 μL of sulfanilamide solution was added to each well and the plate was covered and incubated in the dark for 10 min. After the incubation period 50 μL of N-1-napthylethylenediamine dihydrochloride solution was added to each well and the plate was incubated in dark for a further 10 min. After this incubation, the plate was read at 550 nm on a SPECTRAmax PLUS plate reader and the absorbances were used to generate a NO2— standard curve and the NO2— ion levels of the unknown samples are determined using SoftMax Pro V5, Molecular Devices.
Most neurons are highly vulnerable to RNS and ROS. Nitric oxide (NO) is one of RNSs, which is very short lived and cannot be readily measured. However, nitrite is a stable end product of nitric oxide metabolism. Therefore, nitrite acts as a surrogate measure of NO. The Griess Reagent System (Promega Corporation, Madison, WI) can be applied to measure nitrite levels in culture media following the manufacturer's protocol, and this system was used in the present study as it is a more sensitive assay compared to quantifying actions on TNF-α by ELISA assay. […] This challenge induces high level of TNF-α protein accompanied by a robust generation of nitrite.
(§1) Cells were propagated as described by ATCC guidelines.

TNF-α = experiment: LPS-induced TNF-α production in RAW 264.7 cells (ELISA); assay type: cell-based, mouse; conditions: for TNF-a, % Change versus Control (± s.e.m.): 10 uM; for TNF-α % Δ: percentage of vehicle control value (control = 100%), mean ± S.E.M., n = 3
Protocol: Enzyme-linked immunosorbent assay for TNF-α protein: Media TNF-α levels were measured by use of the Biolegend ELISA MAX Set Delux ELISA (#430904). The protocol used was that recommended by the manufacturer. In brief, a day prior to performing the assay, a 96 well plate was coated with a capture antibody directed against TNF-α. The following day the assay plate was washed and blocked with the kit blocking agent for 1 h while being mixed on a plate shaker at 200 rpm (all incubations were mixed at 200 rpm unless stated otherwise). A TNF-α protein standard curve was prepared in the assay diluent following the kit instructions and unknown media samples were likewise diluted in the same assay diluent. After blocking, the plate was washed and then both the standards and unknown media samples were added to the plate in duplicate. The standards and unknown samples were incubated for 2 h. After the incubation, the plate was washed and then the biotin labeled detection antibody was added to each well and incubated for a further 1 h. After this incubation, the avidin-HRP conjugate complex was added to each well and incubated for 30 min. The plate was washed and the chromogenic substrate 3,3′,5,5′-tetramethylbenzidine solution was added to each well. At this point the plate was covered and incubated in the dark for 15 min, with no mixing. After 15 min the chromogenic reaction was stopped by the addition of 2 N H2SO4 and the absorbance was read at 450 nm and for background subtractions at 570 nm, on a SPECTRAmax PLUS plate reader. The absorbances were used to generate a TNF-α a protein standard curve and the protein levels in the unknown samples were determined using SoftMax Pro V5, Molecular Devices.
as §1

[2] = LPS-activated RAW 264.7 cells (Table 9)
[3] = 1 μM, LPS-challenged RAW 264.7 cells
[4] = 10 μM, LPS-challenged RAW 264.7 cells
[5] = 30 μM, LPS-challenged RAW 264.7 cells

## Nc1cccc2c1C(=O)N(C1CCC(=O)NC1=O)C2=O (stereo not shown)
RAW 264.7 cells; [2]
  Viability, % Change versus Control (± s.e.m.): 95 ± 1.2 (N.S.) %
[1]; [2]
  Nitrite, % Change versus Control (± s.e.m.): 91 ± 1.6 (N.S.) %
TNF-α; [2]
  TNF-a, % Change versus Control (± s.e.m.): 95 ± 4.8 (N.S.) %

## 2-(2,6-dioxopiperidin-3-yl)-4-fluoro-7-nitroisoindoline-1,3-dione [Compound 23]
RAW 264.7 cells; LPS-activated RAW 264.7 cells
  Viability, % Change versus Control (± s.e.m.): 104.9 ± 2.1%
[1]; LPS-activated RAW 264.7 cells
  Nitrite, % Change versus Control (± s.e.m.): 56.8 ± 2.2%
TNF-α; LPS-activated RAW 264.7 cells
  TNF-a, % Change versus Control (± s.e.m.): 86.0 ± 4.4%

## C[C@H]1[C@H](N2C(=O)c3c(F)c(F)c(F)c(F)c3C2=O)C[C@@H]2C[C@H]1C2(C)C [Compound 11, 4,5,6,7-Tetrafluoro-2-((1R,2R,3R,5S)-2,6,6-trimethylbicyclo[3.1.1]heptan-3-yl) isoindoline-1,3-dione]
RAW 264.7 cells
  Cell Viability % Δ: 90 ± 4%
[1]; [3]
  nitrite level, % of vehicle control: 48 ± 2%
[1]; 1 μM
  nitrite inhibitory activity (comparison in words): more potent nitrite inhibitory activity
TNF-α; [3]
  TNF-α % Δ: 76 ± 2%

## C[C@@H]1[C@@H](N2C(=O)c3c(F)c(F)c(F)c(F)c3C2=O)C[C@H]2C[C@@H]1C2(C)C [Compound 12, 4,5,6,7-Tetrafluoro-2-((1S,2S,3S,5R)-2,6,6-trimethylbicyclo[3.1.1]heptan-3-yl) isoindoline-1,3-d ione]
RAW 264.7 cells
  Cell Viability % Δ: 63 ± 4%
[1]; [3]
  nitrite level, % of vehicle control: 24 ± 3%
[1]; 1 μM
  nitrite inhibitory activity (comparison in words): more potent nitrite inhibitory activity
TNF-α; [3]
  TNF-α % Δ: 56 ± 5%

## O=C1c2c(F)c(F)c(F)c(F)c2C(=O)N1C1CC2CCC1C2 (stereo not drawn) [Compound 15, 2-Exo-(bicyclo[2.2.1]heptan-2-yl)-4,5,6,7-tetrafluoroisoindoline-1,3-dione]
[1]; [3]
  nitrite levels: 25-36%
  nitrite level, % of vehicle control: 25 ± 2%
[1]; 1 μM
  nitrite inhibitory activity (comparison in words): more potent nitrite inhibitory activity; also recorded: slightly more potent than diastereomer 16
TNF-α; [3]
  TNF-α level: 55-74%
  TNF-α % Δ: 71 ± 2%

## O=C1c2c(F)ccc(F)c2C(=O)N1C1CC2CCC1C2 (stereo not drawn) [Compound 21, 2-Exo-(bicyclo[2.2.1]heptan-2-yl)-4,7-difluoroisoindoline-1,3-dione]
[1]; [3]
  nitrite level, % of vehicle control: 98 ± 7%
[1]; [4]
  nitrite level, % of vehicle control: 127 ± 2%
[1]; [5]
  nitrite level, % of vehicle control: 83 ± 10%
TNF-α; [3]
  TNF-α % Δ: 90 ± 1%
TNF-α; [4]
  TNF-α % Δ: 90 ± 1%

## O=C1c2c(F)ccc(F)c2C(=O)N1C1CC2CCC1C2 (stereo not drawn) [Compound 22, 2-Endo-(bicyclo[2.2.1]heptan-2-yl)-4,7-difluoroisoindoline-1,3-dione]
[1]; [3]
  nitrite level, % of vehicle control: 103 ± 5%
[1]; [4]
  nitrite level, % of vehicle control: 104 ± 2%
[1]; [5]
  nitrite level, % of vehicle control: 50 ± 3%
TNF-α; [3]
  TNF-α % Δ: 102 ± 5%
TNF-α; [4]
  TNF-α % Δ: 87 ± 5%

## O=C1NC(=S)CCC1N1C(=O)c2c(F)ccc([N+](=O)[O-])c2C1=O (stereo not shown) [Compound 24, 4-fluoro-7-nitro-2-(2-oxo-6-thioxopiperidin-3-yl) isoindoline-1,3-dione]
[1]; LPS-activated RAW 264.7 cells
  Nitrite, % Change versus Control (± s.e.m.): 4.7 ± 1.0%
TNF-α; LPS-activated RAW 264.7 cells
  TNF-a, % Change versus Control (± s.e.m.): 51.3 ± 3.8%

## Nc1ccc(F)c2c1C(=O)N(C1CCC(=O)NC1=O)C2=O (stereo not shown) [Compound 26, 4-amino-2-(2,6-dioxopiperidin-3-yl)-7-fluoroisoindoline-1,3-dione]
RAW 264.7 cells; LPS-activated RAW 264.7 cells
  Viability, % Change versus Control (± s.e.m.): 100.9 ± 1.1%
[1]; LPS-activated RAW 264.7 cells
  Nitrite, % Change versus Control (± s.e.m.): 90.3 ± 3.7%

## Nc1ccc(F)c2c1C(=O)N(C1CCC(=S)NC1=O)C2=O (stereo not shown) [Compound 29, 4-amino-7-fluoro-2-(2-oxo-6-thioxopiperidin-3-yl) isoindoline-1,3-dione]
RAW 264.7 cells; LPS-activated RAW 264.7 cells
  Viability, % Change versus Control (± s.e.m.): 112.4 ± 2.9%
[1]; LPS-activated RAW 264.7 cells
  Nitrite, % Change versus Control (± s.e.m.): 59.0 ± 1.6%

## Nc1c(F)ccc2c1C(=O)N(C1CCC(=O)NC1=O)C2=O (stereo not shown) [Compound 31, 4-amino-2-(2,6-dioxopiperidin-3-yl)-5-fluoroisoindoline-1,3-dione]
[1]
  nitrite levels (in words): surpassed by counterparts 3′ and 26

## Nc1c(F)ccc2c1C(=S)N(C1CCC(=S)NC1=O)C2=O (stereo not shown) [Compound 32, 4-amino-5-fluoro-2-(2-oxo-6-thioxopiperidin-3-yl)-3-thioxoisoindolin-1-one]
[1]
  nitrite levels (in words): modest efficacy

Reference: patent publication US20260055061A1, “HALOPHTHALIMIDE COMPOUNDS AND METHODS OF USE AGAINST TBI, INFLAMMATORY DISORDER, AUTOIMMUNE DISORDER, NEURODEGENERATIVE DISEASE OR VIRAL INFECTION” (The United States of America, as represented by the …, priority 2022, published 2026)
